Source: ChEMBL document CHEMBL5291721, “A preclinical secondary pharmacology resource illuminates target-adverse drug reaction associations of marketed drugs” (Nat Commun, 2023)

How the values were obtained:
[1] = target: T1, Muscarinic acetylcholine receptor M1 (Homo sapiens, UniProt P11229); format: functional, cell-based
T1 sequence (P11229 whole entry): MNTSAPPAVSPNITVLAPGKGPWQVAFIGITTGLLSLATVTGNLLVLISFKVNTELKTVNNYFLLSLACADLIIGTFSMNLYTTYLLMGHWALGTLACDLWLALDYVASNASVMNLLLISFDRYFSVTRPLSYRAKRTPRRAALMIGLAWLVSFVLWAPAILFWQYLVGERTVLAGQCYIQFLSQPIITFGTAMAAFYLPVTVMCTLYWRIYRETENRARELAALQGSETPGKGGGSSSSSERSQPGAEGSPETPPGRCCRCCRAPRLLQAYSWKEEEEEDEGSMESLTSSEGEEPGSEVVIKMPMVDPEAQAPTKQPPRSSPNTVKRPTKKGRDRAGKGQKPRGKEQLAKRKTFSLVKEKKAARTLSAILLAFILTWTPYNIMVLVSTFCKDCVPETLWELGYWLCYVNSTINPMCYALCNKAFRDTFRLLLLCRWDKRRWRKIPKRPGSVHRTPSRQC

[2] = target: Sodium-dependent serotonin transporter (Homo sapiens, UniProt P31645)
[3] = target: Prostaglandin G/H synthase 1 (Homo sapiens, UniProt P23219); format: functional
[4] = target: Sodium-dependent noradrenaline transporter (Homo sapiens, UniProt P23975)
[5] = target: T2, Alpha-1A adrenergic receptor (Homo sapiens, UniProt P35348); format: functional, cell-based
T2 sequence (P35348 whole entry): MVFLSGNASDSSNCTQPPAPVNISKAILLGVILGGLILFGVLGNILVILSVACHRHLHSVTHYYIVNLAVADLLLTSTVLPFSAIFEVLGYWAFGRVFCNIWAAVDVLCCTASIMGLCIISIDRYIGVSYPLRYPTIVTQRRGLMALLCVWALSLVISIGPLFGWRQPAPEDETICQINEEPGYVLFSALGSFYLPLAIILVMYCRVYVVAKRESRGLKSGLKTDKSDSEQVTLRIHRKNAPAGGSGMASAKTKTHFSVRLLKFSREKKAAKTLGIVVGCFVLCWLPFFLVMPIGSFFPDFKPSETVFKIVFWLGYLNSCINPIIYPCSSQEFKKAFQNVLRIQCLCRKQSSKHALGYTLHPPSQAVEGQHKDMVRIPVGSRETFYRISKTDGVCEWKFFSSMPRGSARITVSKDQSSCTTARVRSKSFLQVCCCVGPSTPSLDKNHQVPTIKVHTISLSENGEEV

[6] = target: T3, Amine oxidase [flavin-containing] A (Homo sapiens, UniProt P21397); format: functional
T3 sequence (P21397 whole entry): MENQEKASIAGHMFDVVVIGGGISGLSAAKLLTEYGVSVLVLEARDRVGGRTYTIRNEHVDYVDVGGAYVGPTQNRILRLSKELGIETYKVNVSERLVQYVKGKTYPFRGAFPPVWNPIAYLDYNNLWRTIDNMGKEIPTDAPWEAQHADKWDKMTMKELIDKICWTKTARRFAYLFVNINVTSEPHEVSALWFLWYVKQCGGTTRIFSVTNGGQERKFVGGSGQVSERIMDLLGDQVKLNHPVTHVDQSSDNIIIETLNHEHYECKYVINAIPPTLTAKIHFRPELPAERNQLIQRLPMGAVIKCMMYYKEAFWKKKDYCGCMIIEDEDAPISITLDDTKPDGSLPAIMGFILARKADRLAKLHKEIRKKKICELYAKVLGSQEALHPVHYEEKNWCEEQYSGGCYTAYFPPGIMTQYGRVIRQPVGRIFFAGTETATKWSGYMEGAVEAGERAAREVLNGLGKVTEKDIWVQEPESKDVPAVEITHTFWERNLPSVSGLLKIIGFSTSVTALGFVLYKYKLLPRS

[7] = target: Gamma-aminobutyric acid receptor subunit alpha-1/alpha-2/beta-2/gamma-2 (Homo sapiens, UniProt P14867+P18507+P47869+P47870); format: protein-complex assay
[8] = target: T4, Androgen receptor (Homo sapiens, UniProt P10275)
T4 sequence (P10275 whole entry): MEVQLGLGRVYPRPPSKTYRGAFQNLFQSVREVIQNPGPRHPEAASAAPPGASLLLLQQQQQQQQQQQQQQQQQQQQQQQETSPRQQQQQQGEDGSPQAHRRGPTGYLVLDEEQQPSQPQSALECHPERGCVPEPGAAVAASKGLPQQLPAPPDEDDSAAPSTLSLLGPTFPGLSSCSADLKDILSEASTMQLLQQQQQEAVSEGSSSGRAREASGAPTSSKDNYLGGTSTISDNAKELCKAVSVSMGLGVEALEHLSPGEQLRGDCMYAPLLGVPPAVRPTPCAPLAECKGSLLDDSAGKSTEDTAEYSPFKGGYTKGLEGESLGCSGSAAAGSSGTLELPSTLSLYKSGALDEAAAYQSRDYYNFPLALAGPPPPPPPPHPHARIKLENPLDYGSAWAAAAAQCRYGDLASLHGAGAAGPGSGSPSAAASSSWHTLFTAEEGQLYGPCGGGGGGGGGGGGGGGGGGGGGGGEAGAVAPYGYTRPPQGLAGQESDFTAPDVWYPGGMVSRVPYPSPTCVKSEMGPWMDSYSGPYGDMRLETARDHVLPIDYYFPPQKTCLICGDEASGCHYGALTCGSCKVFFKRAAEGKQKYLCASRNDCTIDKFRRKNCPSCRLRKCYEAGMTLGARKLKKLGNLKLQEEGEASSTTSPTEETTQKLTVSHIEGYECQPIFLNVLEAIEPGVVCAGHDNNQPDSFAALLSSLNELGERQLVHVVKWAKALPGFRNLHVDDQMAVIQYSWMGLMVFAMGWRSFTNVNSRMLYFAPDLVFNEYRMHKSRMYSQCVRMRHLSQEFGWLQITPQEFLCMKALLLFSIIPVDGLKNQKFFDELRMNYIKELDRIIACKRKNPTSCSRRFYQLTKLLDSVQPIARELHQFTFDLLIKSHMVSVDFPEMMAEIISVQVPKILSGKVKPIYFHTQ

[9] = target: Mu-type opioid receptor (Homo sapiens, UniProt P35372)
[10] = target: Vascular endothelial growth factor receptor 2 (Homo sapiens, UniProt P35968); format: functional
[11] = target: T1, Muscarinic acetylcholine receptor M1; format: functional, cell-based; remark: listed apart in the source
[12] = target: D(1A) dopamine receptor (Homo sapiens, UniProt P21728)

Measured: AC50
Further: assay procedure not described here.

Chain of D(1A) dopamine receptor (P21728 whole entry): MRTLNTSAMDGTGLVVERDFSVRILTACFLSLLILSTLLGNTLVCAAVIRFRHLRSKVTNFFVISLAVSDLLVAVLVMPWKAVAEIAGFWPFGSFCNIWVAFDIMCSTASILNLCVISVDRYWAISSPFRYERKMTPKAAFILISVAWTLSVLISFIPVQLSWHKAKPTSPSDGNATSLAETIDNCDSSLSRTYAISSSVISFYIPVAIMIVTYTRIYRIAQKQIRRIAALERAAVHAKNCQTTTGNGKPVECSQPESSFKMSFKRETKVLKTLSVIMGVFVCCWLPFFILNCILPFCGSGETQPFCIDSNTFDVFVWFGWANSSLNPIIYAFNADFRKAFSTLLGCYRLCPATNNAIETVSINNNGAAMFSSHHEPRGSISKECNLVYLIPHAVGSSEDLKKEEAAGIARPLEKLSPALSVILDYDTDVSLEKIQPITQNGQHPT
Chain of Prostaglandin G/H synthase 1 (P23219 whole entry): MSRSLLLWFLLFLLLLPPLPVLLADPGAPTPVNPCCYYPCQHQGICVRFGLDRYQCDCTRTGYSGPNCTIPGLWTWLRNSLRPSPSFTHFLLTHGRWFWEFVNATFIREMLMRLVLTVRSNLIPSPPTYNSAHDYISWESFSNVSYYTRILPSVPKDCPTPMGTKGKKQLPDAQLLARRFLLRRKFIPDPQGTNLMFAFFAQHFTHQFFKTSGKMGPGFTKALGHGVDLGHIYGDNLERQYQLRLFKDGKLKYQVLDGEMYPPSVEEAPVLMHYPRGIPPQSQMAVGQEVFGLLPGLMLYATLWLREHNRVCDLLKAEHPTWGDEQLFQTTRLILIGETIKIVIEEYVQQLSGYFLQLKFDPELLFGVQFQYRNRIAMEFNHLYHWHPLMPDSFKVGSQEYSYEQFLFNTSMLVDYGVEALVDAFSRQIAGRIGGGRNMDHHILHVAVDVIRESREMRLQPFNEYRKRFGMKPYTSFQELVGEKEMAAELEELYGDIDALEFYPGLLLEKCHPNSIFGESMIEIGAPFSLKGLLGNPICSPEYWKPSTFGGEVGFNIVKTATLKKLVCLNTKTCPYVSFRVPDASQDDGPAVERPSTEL
Chain of Gamma-aminobutyric acid receptor subunit alpha-1/alpha-2/beta-2/gamma-2 (P14867 whole entry): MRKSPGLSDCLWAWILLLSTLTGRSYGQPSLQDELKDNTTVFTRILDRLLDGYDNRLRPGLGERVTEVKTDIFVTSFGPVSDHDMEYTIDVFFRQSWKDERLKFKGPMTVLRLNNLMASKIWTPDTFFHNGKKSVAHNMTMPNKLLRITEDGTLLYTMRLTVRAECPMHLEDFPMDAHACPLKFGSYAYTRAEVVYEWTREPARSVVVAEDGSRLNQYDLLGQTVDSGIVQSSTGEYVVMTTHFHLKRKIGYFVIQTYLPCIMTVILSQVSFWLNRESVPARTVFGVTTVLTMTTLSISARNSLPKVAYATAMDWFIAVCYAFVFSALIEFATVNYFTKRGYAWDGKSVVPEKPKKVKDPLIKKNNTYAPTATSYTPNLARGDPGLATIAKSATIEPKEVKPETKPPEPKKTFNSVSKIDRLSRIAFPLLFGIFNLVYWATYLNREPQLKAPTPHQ
Chain of Gamma-aminobutyric acid receptor subunit alpha-1/alpha-2/beta-2/gamma-2 (P47870 whole entry): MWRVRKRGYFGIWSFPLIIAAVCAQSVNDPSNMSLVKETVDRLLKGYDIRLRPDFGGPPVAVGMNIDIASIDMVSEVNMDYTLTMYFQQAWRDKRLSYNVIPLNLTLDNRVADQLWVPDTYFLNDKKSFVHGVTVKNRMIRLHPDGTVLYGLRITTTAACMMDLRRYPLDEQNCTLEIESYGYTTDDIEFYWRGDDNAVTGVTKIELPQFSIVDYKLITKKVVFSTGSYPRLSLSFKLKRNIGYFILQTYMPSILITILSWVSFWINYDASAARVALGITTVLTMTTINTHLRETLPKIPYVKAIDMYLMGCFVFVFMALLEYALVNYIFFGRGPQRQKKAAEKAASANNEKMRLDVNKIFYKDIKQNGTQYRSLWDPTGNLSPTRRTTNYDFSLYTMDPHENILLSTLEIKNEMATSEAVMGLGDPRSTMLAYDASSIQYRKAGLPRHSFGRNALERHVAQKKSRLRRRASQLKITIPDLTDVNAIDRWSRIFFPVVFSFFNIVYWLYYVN
Chain of Gamma-aminobutyric acid receptor subunit alpha-1/alpha-2/beta-2/gamma-2 (P18507 whole entry): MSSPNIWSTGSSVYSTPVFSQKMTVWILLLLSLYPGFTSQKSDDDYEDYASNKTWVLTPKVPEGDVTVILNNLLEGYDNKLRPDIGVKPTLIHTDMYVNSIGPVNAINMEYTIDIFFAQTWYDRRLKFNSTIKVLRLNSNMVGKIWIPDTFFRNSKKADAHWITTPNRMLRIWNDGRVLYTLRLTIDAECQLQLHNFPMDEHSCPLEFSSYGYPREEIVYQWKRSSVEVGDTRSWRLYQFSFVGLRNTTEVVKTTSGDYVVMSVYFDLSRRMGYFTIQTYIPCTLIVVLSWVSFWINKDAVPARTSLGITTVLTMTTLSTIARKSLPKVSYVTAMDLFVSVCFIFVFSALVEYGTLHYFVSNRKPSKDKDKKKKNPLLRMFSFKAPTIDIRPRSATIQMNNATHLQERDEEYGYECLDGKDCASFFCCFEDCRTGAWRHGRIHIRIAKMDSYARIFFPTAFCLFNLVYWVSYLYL
Chain of Gamma-aminobutyric acid receptor subunit alpha-1/alpha-2/beta-2/gamma-2 (P47869 whole entry): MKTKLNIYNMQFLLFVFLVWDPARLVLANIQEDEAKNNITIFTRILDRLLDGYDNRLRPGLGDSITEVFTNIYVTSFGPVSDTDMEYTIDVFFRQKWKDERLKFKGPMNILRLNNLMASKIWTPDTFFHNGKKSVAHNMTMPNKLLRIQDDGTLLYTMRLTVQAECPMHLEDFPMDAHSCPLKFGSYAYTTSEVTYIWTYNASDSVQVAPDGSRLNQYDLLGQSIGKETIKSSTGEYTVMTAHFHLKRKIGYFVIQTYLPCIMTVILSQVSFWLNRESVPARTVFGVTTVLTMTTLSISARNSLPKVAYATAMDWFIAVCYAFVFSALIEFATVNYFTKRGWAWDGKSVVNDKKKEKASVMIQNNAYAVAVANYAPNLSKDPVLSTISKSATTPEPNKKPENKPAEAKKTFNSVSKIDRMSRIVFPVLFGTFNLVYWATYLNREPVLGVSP
Chain of Mu-type opioid receptor (P35372 whole entry): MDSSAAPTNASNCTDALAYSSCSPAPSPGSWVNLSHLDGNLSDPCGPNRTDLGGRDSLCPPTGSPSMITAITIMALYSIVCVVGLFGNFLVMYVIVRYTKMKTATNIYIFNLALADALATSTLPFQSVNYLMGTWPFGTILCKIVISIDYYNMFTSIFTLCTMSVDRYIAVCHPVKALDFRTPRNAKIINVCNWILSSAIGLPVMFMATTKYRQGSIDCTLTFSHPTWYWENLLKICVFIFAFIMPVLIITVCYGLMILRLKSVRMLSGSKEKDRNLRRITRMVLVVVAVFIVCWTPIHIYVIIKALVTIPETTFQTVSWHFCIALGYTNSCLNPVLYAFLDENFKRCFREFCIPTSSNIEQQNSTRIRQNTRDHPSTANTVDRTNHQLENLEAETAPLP
Chain of Sodium-dependent noradrenaline transporter (P23975 whole entry): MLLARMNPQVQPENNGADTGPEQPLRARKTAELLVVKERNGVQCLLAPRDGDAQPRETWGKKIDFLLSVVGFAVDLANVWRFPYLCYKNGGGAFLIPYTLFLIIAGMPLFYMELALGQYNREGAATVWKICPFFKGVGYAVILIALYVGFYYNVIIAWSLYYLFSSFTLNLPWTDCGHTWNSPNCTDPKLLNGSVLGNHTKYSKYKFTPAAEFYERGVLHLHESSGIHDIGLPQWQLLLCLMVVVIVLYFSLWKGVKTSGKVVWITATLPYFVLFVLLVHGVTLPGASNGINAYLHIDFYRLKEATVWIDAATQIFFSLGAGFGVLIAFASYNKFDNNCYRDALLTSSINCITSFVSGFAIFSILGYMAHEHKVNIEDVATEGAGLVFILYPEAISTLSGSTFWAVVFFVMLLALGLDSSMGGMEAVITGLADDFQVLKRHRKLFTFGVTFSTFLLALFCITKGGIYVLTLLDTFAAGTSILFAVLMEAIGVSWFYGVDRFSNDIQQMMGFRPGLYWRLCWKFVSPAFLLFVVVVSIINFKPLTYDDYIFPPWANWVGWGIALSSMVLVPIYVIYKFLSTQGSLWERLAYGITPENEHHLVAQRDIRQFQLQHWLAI
Chain of Sodium-dependent serotonin transporter (P31645 whole entry): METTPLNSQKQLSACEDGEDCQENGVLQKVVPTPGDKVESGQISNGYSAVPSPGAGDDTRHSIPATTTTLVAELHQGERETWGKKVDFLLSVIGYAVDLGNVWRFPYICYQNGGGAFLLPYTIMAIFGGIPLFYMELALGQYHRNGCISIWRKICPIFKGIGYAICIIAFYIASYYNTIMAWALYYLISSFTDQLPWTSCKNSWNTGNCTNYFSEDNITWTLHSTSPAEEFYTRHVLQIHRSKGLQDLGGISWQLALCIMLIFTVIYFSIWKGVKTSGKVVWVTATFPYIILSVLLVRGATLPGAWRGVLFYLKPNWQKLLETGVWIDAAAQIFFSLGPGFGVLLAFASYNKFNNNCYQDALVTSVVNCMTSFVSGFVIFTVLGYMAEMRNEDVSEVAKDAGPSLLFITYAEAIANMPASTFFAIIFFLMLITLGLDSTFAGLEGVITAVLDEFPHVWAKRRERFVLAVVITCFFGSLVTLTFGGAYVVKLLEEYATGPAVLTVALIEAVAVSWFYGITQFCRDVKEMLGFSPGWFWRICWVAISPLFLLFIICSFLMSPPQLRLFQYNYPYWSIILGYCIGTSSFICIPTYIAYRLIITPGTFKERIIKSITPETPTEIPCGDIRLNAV

Cc1cn(-c2cc(NC(=O)c3ccc(C)c(Nc4nccc(-c5cnccn5)n4)c3)cc(C(F)(F)F)c2)cn1 [RADOTINIB]
26 µM: [3]
1.54 µM: [10]
> 3 µM: [9]
> 30 µM: all other assays above

COC(=O)N(C)c1c(N)nc(-c2nn(Cc3ccccc3F)c3ncccc23)nc1N [RIOCIGUAT]
not listed: [5]
> 30 µM: all other assays above

CC(C)N1CCOC(c2cccc(C(F)(F)F)c2)C1 (stereo unspecified) [OXAFLOZANE]
not listed: [5]
> 30 µM: all other assays above

CN1C(C(=O)Nc2ccccn2)=C(OC(=O)/C=C/c2ccccc2)c2ccccc2S1(=O)=O [PIROXICAM CINNAMATE]
> 10 µM: [6]
16.3 µM: [3]
not listed: [5]
> 30 µM: all other assays above

CC(C)(Oc1ccc(C(=O)c2ccc(Cl)cc2)cc1)C(=O)O [FENOFIBRIC ACID]
not listed: [5]
> 30 µM: all other assays above
